These results are taken from US20230210732A1, “REDUCTIVE TEETH WHITENING UTILIZING SALTS OF DITHIONITE” (CAO Group, Inc., priority 2022, published 2023).

This assay is described as follows: whitening of stained extracted teeth, color scored against a classical VITA shade guide. The following applies: for tooth whitening (color vs classical VITA shade guide): teeth left in solution overnight, all teeth. The source says: To evaluate these solutions, a collection of extracted teeth was examined and selected for dark color stains ranging from light yellow to brown. These teeth were then categorized and scored for color by comparing to a classical VITA shade guide. Then half of the teeth were then placed in a fresh solution of 15% sodium dithionite in water with unadjusted pH. The second half were placed in the solution adjusted to above pH 10. All teeth became whiter after remaining in solution overnight, especially light yellow to yellow stained teeth.

Molecules are shown by their SMILES.

For `O=S([O-])S(=O)[O-].[Na+].[Na+]` [sodium dithionite], the “tooth whitening of brown stained teeth” value (15% sodium dithionite in water (unadjusted pH or above pH 10), overnight, brown teeth, less effect than light yellow to yellow teeth) is “whitened significantly”. The “tooth whitening (color vs classical VITA shade guide)” value (15% sodium dithionite solution adjusted to above pH 10) is recorded as “became whiter” and the “tooth whitening (color vs classical VITA shade guide)” value (fresh solution of 15% sodium dithionite in water, unadjusted pH) is “became whiter”.
